Measured values: PMC9026148, “Pre-Clinical Study Evaluating Novel Protein Phosphatase 2A Activators as Therapeutics for Neuroblastoma” (Cancers, 2022)

How the values were obtained:
SK-N-AS cells = experiment: alamarBlue viability, SK-N-AS; assay type: cell-based, human; conditions: 24 h
Description: CellTiter 96® Aqueous One Solution Cell Proliferation assay (Promega, Madison, WI, USA) was used to examine proliferation, and alamarBlue® assay (Thermo Fisher Scientific, Inc.) was used to evaluate viability. Cells, concentrations ranging from 5 × 10^3 to 1.5 × 10^4, depending on cell type due to wide variation in growth characteristics between established cell lines and PDX cells, were plated in 96-well plates and treated with increasing doses of 792 or 1154 for 24 h. CellTiter 96® or alamarBlue® dye (10 µL) was added for proliferation and viability assays, respectively. A microplate reader (Epoch Microplate Spectrophotometer, BioTek Instruments, Winooski, VT) measured absorbance at 490 nm for CellTiter 96® and at 570 nm for alamarBlue®, using 600 nm as a reference. […] Experiments were completed with at least three biologic replicates, and data reported as fold change ± SEM.
Supplemental Figure S3: Novel PP2A activating compounds decrease d neuroblastoma proliferation and viability. SK-N-AS and SK-N-BE(2) cells (1.5 x 104) were plated in 96-well plates and treated with increasing doses of nine PP2A activating compounds for 24 […]
novel PP2A activators tested in (A) SK-N-AS and (B) SK-N-BE(2) cells. Similarly, PP2A […]
(D) SK-N-BE(2) cells. Data reported as mean fold change ± SEM, and experiments were repeated with at least three biologic replicates. […]

SK-N-AS flank tumors = experiment: SK-N-AS flank tumor growth in athymic nude mice; assay type: in vivo, mouse; conditions: 50 mg/kg bid po; for Percent necrosis in SK-N-AS tumors: H&E, blinded pathologist, vehicle 8.3 ± 3.3%; for tumor volume: SK-N-AS flank tumors, after 9 days, vehicle 2104 ± 53
Description: SK-N-AS (1.8 × 10^6) or SK-N-BE(2) (1.5 × 10^6) cells in 25% Matrigel™ (BD Biosciences) were injected into the right flank of 6-week-old female athymic nude mice (Fredricks, Charles River, Wilmington, MA, USA) (n = 5 for SK-N-AS vehicle treated, n = 7 for SK-N-AS 792 or 1154 treatment and all SK-N-BE(2) experimental groups). Calipers were used to measure tumors three times per week, and volumes were calculated by the formula (width^2 × length)/2, where width was the smaller measurement. After tumors reached a volume of 100 mm^3, animals were randomized to three groups to receive 100 µL of either vehicle (N,N-dimethylacetamide (DMA, 271012, Sigma Aldrich) and Kolliphor® HS 15 (Solutol, 42996, Sigma Aldrich)), 792 (50 mg/kg in DMA and Solutol), or 1154 (50 mg/kg in DMA and Solutol) twice daily by oral gavage; dosing based on previously published in vivo cancer models. Animals were weighed weekly and were humanely euthanized in their home cages with CO2 and cervical dislocation when control tumors reached 2000 mm^3; either 9 (SK-N-AS tumors) or 19 days (SK-N-BE(2) tumors) following treatment initiation, or when IACUC parameters were met. Power analysis was completed prior to the study.

MYCN = experiment: Immunoblotting of MYCN in neuroblastoma cells; assay type: cell-based, human; conditions: 24 h
Description: Following treatment, cells were lysed on ice using radioimmunoprecipitation (RIPA) buffer with phosphatase inhibitors (P5726, Sigma Aldrich), protease inhibitors (P8340, Sigma Aldrich), and phenylmethanesulfonylfluoride (PMSF, P7626, Sigma Aldrich) for 60 min. Cell lysates were centrifuged at 17,000 rpm for 30 min at 4 °C. Pierce™ BCA Protein Assay (Thermo Fisher Scientific, Inc.) determined protein concentration and proteins were separated by electrophoresis on sodium dodecyl sulfate polyacrylamide (SDS-PAGE) gels. Expected size of the targeted proteins was confirmed using molecular weight markers (Precision Plus Protein Kaleidoscope, Bio-Rad, Hercules, CA, USA). […] Immunoblots were developed with Luminata Classico or Crescendo Western horseradish peroxidase substrate (EMD Millipore, Burlington, MA, USA). Either anti-vinculin or anti-β-actin (as available from manufacturer) served as an internal loading control. We performed densitometry of Western blots using ImageJ software (Ver 1.49, http://imagej.nih.gov/ij (accessed on 9 February 2022).

[1] = test system: SK-N-AS, SK-N-BE(2), SH-EP, WAC2 cells; experiment: Modified Boyden chamber invasion assay; assay type: cell-based, human; conditions: 24-h treatment, same doses as scratch assay; four cell lines
Description: Since the established neuroblastoma cell lines grow as adherent cells, migration in SK-N-AS, SK-N-BE(2), SH-EP, and WAC2 cells was examined using monolayer wound healing (scratch) assay. […] Once cells reached 80% confluence, a sterile 200 μL pipette tip was used to make a standard scratch in the cell layer. Photographs of the plates were obtained at 0, 12, 24, and 36 h. ImageJ MRI Wound Healing Tool (http://imagej.nih.gov/ij/ (accessed on 14 October 2019) quantified the open wound area, and data reported as fold change of the open area ± SEM. Invasion was evaluated with a modified Boyden chamber technique. The insert bottoms were coated with collagen type I (10 µg/mL, MP Biomedicals, Santa Ana, CA, USA). The insert tops were coated with a layer of Matrigel^TM (1 mg/mL, 50 μL, BD Biosciences). Cells were treated for 24 h with 792 (SK-N-AS 10 μM; SK-N-BE(2), SH-EP, WAC2 15 μM) or 1154 (SK-N-AS, SK-N-BE(2) 10 μM; SH-EP, WAC2 15 μM), plated (4 × 10^4 cells), and allowed to invade through the membrane for 24 h. Insert membranes were fixed using 4% paraformaldehyde, stained with 1% crystal violet for 15 min, photographed, and invasion quantified with ImageJ (http://imagej.nih.gov/ij/ (accessed on 10 September 2019)). Invasion data were reported as mean percent membrane occupied by cells ± SEM. Experiments were completed with at least three biologic replicates.

[2] = SK-N-AS cells, increasing doses
[3] = SK-N-BE(2), SH-EP and WAC2 cells, 0, 10, 20 μM

Row | Structure (SMILES) | LD50 (SK-N-AS cells) [µM] | Percent necrosis in SK-N-AS tumors (SK-N-AS flank tumors) [%] | tumor volume (SK-N-AS flank tumors) [mm^3] | ganglion cells in tumors (tumor cell differentiation) (SK-N-AS flank tumors; SK-N-AS tumors, H&E staining) | MYCN protein expression (MYCN; [2]) | MYCN protein expression (MYCN; [3]) | Invasion [1]
1 | O=S(=O)(N[C@H]1COC[C@@H](n2c3ccc(Cl)cc3c3cc(Cl)ccc32)[C@@H]1O)c1ccc(OC(F)(F)F)cc1 [ATUX-792] | 12.2 | 33.3 ± 8.8 | 1309 ± 169 | ganglion cells present | increase in MYCN expression | decreased expression of MYCN | significantly decreased
2 | O=S(=O)(NC1CCCC(N2c3ccccc3CCc3ccccc32)C1O)c1ccc(OC(F)(F)F)cc1 (stereo not shown) [DBK-1154] | 13.9 | 23.3 ± 6.7 | 2124 ± 275 |  | increase in MYCN expression | decreased expression of MYCN | significantly decreased
